Some results are limits rather than exact numbers.

The first assay deals with human NaV 1.8 (Homo sapiens, UniProt Q9Y5Y9). The assay is described as follows: E-VIPR assay detecting and measuring NaV inhibition properties. The following applies: HEK cells expressing truncated human NaV 1.8; in the presence of human serum (compound numbers followed by *); read-out: IC50 in the E-VIPR Assay, performed in the presence of human serum. In kind it is cell-based. The source says: Sodium ion channels are voltage-dependent proteins that can be activated by inducing membrane voltage changes by applying electric fields. The electrical stimulation instrument and methods of use, referred to as E-VIPR, are described in International Publication No. WO 2002/008748 A3 and C.-J. Huang et al. Characterization of voltage-gated sodium channel blockers by electrical stimulation and fluorescence detection of membrane potential, 24 Nature Biotech. 439-46 (2006), both of which are incorporated by reference in their entirety. The instrument comprises a microtiter plate handler, an optical system for exciting the coumarin dye while simultaneously recording the coumarin and oxonol emissions, a waveform generator, a current- or voltage-controlled amplifier, and parallel electrode pairs that are inserted into assay plate wells. Under integrated computer control, this instrument passes user-programmed electrical stimulus protocols to cells within the wells of the microtiter plate.
Sequence of human NaV 1.8 (Q9Y5Y9 126-399 limits assumed): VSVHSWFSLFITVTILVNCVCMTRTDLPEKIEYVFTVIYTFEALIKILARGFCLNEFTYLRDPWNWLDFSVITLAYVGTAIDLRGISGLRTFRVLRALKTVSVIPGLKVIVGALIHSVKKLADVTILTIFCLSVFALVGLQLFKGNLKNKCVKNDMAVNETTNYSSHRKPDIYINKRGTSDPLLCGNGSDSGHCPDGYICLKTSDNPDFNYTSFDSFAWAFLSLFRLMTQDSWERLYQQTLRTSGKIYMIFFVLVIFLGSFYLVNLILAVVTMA
Sequence of human NaV 1.8 (Q9Y5Y9 660-890 limits assumed): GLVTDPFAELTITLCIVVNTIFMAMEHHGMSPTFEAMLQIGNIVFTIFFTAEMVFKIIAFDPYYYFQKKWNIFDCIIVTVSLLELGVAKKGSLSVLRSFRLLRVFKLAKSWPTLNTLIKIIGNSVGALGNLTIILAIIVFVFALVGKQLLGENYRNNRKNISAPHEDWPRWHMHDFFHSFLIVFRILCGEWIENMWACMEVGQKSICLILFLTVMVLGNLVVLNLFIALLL
Sequence of human NaV 1.8 (Q9Y5Y9 1148-1722 limits assumed): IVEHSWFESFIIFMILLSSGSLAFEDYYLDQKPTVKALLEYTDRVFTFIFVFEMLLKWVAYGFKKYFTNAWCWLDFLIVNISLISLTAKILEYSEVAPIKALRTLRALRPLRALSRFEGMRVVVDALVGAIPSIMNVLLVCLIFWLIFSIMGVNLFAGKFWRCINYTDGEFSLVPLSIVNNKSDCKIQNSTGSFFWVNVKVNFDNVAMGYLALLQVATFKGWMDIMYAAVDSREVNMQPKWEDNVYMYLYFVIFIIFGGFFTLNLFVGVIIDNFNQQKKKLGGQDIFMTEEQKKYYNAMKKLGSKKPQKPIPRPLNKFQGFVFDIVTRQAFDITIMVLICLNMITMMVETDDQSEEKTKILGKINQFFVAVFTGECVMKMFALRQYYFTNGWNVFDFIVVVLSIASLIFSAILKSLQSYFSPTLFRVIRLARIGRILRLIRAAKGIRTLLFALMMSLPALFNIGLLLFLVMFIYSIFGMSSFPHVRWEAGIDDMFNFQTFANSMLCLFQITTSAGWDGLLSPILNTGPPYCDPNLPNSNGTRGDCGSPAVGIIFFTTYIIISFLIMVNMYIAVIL
16-20 hours prior to running the assay on E-VIPR, HEK cells expressing a truncated form of human NaV 1.8 with full channel activity were seeded into microtiter 384-well plates, pre-coated with matrigel, at a density of 25,000 cells per well. 2.5-5% KIR2.1 Bacmam virus was added to the final cell suspension before seeding into cell plates. HEK cells were grown in Dulbecco's Modified Eagle's Medium (DMEM) supplemented with 10% FBS (Fetal Bovine Serum, qualified; Sigma #F4135), 1% NEAA (Non-Essential Amino Acids, Gibco #11140), 1% HEPES (Gibco #15630), 1% Pen-Strep (Penicillin-Streptomycin; Gibco #15140) and 5 μg/ml Blasticidin (Gibco #R210-01). Cells were expanded in vented cap cell culture flasks, with 90-95% humidity and 5% CO2.
Human Serum (HS, Millipore #S1P1-01KL, or Sigma SLBR5469V and SLBR5470V as a 50%/50% mixture, for 25% assay final concentration) • Bath 1 Buffer: • Sodium Chloride 160 mM (9.35 g/L), Potassium Chloride, 4.5 mM (0.335 g/L), Glucose 10 mM (1.8 g/L), Magnesium Chloride (Anhydrous) 1 mM (0.095 g/L), Calcium Chloride 2 mM (0.222 g/L), HEPES 10 mM (2.38 g/L) in water. • Na/TMA C1 Bath 1 Buffer: • Sodium Chloride 96 mM (5.61 g/L), Potassium Chloride 4.5 mM (0.335 g/L), Tetramethylammonium (TMA)-Cl 64 mM (7.01 g/L), Glucose 10 mM (1.8 g/L), Magnesium Chloride (Anhydrous) 1 mM (0.095 g/L), Calcium Chloride 2 mM (0.222 g/L) HEPES 10 mM (2.38 g/L) in water. • Hexyl Dye Solution (2× concentration): • Bath 1 Buffer containing 0.5% P-cyclodextrin (made fresh prior to each use, Sigma #C4767), 8 μM CC2-DMPE and 2 μM DiSBAC6(3). The solution was made by adding 10% Pluronic F127 stock equal to combined volumes of CC2-DMPE and DiSBAC6(3). The order of preparation was first mix Pluronic and CC2-DMPE, then add DiSBAC6(3), then while vortexing add Bath 1/p-Cyclodextrin.
Compound Loading Buffer (2× concentration): Na/TMA C1 Bath1 Buffer containing HS (omitted in experiments run in the absence of human serum (HS)) 50%, VABSC-1 1 mM, BSA 0.2 mg/ml (in Bath-1), KCl 9 mM, DMSO 0.625%.
1) To reach the final concentration in each well, 375 nL of each compound was pre-spotted (in neat DMSO) into polypropylene compound plates at 240× desired final concentration from an intermediate stock concentration of 0.075 mM, in an 11 point dose response, 3-fold dilution, resulting in a top dose of 300 nM final concentration in the cell plate. Vehicle control (neat DMSO), and positive control (an established NaV1.8 inhibitor, 25 μM final in assay in DMSO) were added manually to the outermost columns of each plate respectively. The compound plate was backfilled with 45 μL per well of Compound Loading Buffer resulting in a 240 fold dilution of compound following a 1:1 transfer of compound into the cell plate (see Step 6). Final DMSO concentration for all wells in the assay was 0.625% (0.75% DMSO was supplemented to the Compound Loading Buffer for a final DMSO concentration of 0.625%). […]
For orientation: IC50 means the midpoint of a concentration-inhibition curve. Turning to `COc1c(C2CC(C)(C(F)(F)F)OC2C(=O)Nc2ccnc(C(O)C(C)O)c2)ccc(F)c1F` (single isomer, unassigned) [Compound 693], the IC50 was at least 1000 nM.

The assay is the same for the next values; noted with them: HEK cells expressing truncated human NaV 1.8; no human serum; read-out: IC50 in the E-VIPR Assay.
On to `COc1c([C@H]2[C@H](C(=O)Nc3cncc(S(=O)(=O)N(C)C)c3)O[C@@](C)(C(F)(F)F)[C@H]2C)ccc(F)c1F` (stereo in doubt) [Compound 453, rel-(2R,3S,4S,5R)-3-(3,4-difluoro-2-methoxyphenyl)-N-(5-(N,N-dimethylsulfamoyl)pyridin-3-yl)-4,5-dimethyl-5-(trifluoromethyl)tetrahydrofuran-2-carboxamide], for which the IC50 was in the range of 10 to 100 nM.

Regarding `COc1c([C@H]2[C@H](C(=O)NC(C)c3cnn(C)c3)O[C@@](C)(C(F)(F)F)[C@H]2C)ccc(F)c1F` (stereo partly drawn) [Compound 296, (2R,3S,4S,5R)-3-(3,4-difluoro-2-methoxyphenyl)-4,5-dimethyl-N-(1-(1-methyl-1H-pyrazol-4-yl)ethyl)-5-(trifluoromethyl)tetrahydrofuran-2-carboxamide], the IC50 was at least 1000 nM.

`COc1c([C@H]2[C@H](C(=O)Nc3ccc(N4CCN(C)CC4=O)nc3)O[C@@](C)(C(F)(F)F)[C@H]2C)ccc(F)c1F` [Compound 391, (2R,3S,4S,5R)-3-(3,4-difluoro-2-methoxyphenyl)-4,5-dimethyl-N-(6-(4-methyl-2-oxopiperazin-1-yl)pyridin-3-yl)-5-(trifluoromethyl)-tetrahydrofuran-2-carboxamide]: the IC50 lay within 100 to 1000 nM.

For `COc1c([C@H]2[C@H](C(=O)Nc3ccnc(C(F)CO)c3)O[C@@](C)(C(F)(F)F)[C@H]2C)ccc(F)c1F` (single isomer, unassigned) [Compound 439, rel-(2R*,3S*,4S*,5R*)-3-(3,4-difluoro-2-methoxyphenyl)-N-(2-(1-fluoro-2-hydroxyethyl)pyridin-4-yl)-4,5-dimethyl-5-(trifluoromethyl)tetrahydrofuran-2-carboxamide], the IC50 is under 10 nM.

On to `COCCOc1cc(NC(=O)C2OC(C)(C(F)(F)F)C(C)C2c2ccc(F)c(F)c2OC)cnn1` (single isomer, unassigned) [Compound 33, 3-(3,4-difluoro-2-methoxy-phenyl)-N-[6-(2-methoxyethoxy)pyridazin-4-yl]-4,5-dimethyl-5-(trifluoromethyl)tetrahydrofuran-2-carboxamide], for which the IC50 is at least 1000 nM.

In the case of `COc1c([C@H]2[C@H](C(=O)Nc3ccc(CCS(C)(=O)=O)nc3)O[C@@](C)(C(F)(F)F)[C@H]2C)ccc(F)c1F` [Compound 194, (2R,3S,4S,5R)-3-(3,4-difluoro-2-methoxyphenyl)-4,5-dimethyl-N-(6-(2-(methylsuflonyl)ethyl)pyridin-3-yl)-5-(trifluoromethyl)tetrahydrofuran-2-carboxamide], the IC50 lay within 10 to 100 nM.

As for `COCCOc1c([C@H]2[C@H](C(=O)Nc3ccnc(C(O)CO)c3)O[C@@](C)(C(F)(F)F)[C@H]2C)ccc(F)c1F` (stereo partly drawn) [Compound 647, (2R,3S,4S,5R)-3-[3,4-difluoro-2-(2-methoxyethoxy)phenyl]-N-[2-(1,2-dihydroxyethyl)-4-pyridyl]-4,5-dimethyl-5-(trifluoromethyl)tetrahydrofuran-2-carboxamide], the IC50 is under 10 nM.

With `C[C@H]1[C@@H](c2ccc(F)c(F)c2OCCO)[C@H](C(=O)Nc2ccon2)O[C@@]1(C)C(F)(F)F` [Compound 556, (2R,3S,4S,5R)-3-(3,4-difluoro-2-(2-hydroxyethoxy)phenyl)-N-(isoxazol-3-yl)-4,5-dimethyl-5-(trifluoromethyl)tetrahydrofuran-2-carboxamide], the IC50 is 100 to 1000 nM.

`C[C@H]1[C@@H](c2ccc(F)c(F)c2OC(F)F)[C@H](C(=O)Nc2ccc(CCO)nc2)O[C@@]1(C)C(F)(F)F` (single isomer, unassigned) [Compound 460]: the IC50 fell in the range of 10 to 100 nM.

Regarding `COc1c([C@H]2[C@H](C(=O)NCC(O)c3cnn(C)c3)O[C@@](C)(C(F)(F)F)[C@H]2C)ccc(F)c1F` (stereo partly drawn) [Compound 301, (2R,3S,4S,5R)-3-(3,4-difluoro-2-methoxyphenyl)-N-(2-hydroxy-2-(1-methyl-1H-pyrazol-4-yl)ethyl)-4,5-dimethyl-5-(trifluoromethyl)tetrahydrofuran-2-carboxamide], the IC50 is at least 1000 nM.

Turning to `COCC(N)c1cc(NC(=O)[C@@H]2O[C@@](C)(C(F)(F)F)[C@@H](C)[C@H]2c2ccc(F)c(F)c2OC)c(F)cn1` (single isomer, unassigned) [Compound 422, rel-(2R*,3S*,4S*,5R*)-N-(2-(1-amino-2-methoxyethyl)-5-fluoropyridin-4-yl)-3-(3,4-difluoro-2-methoxyphenyl)-4,5-dimethyl-5-(trifluoromethyl)-tetrahydrofuran-2-carboxamide], the IC50 lay in the range of 10 to 100 nM.

In the case of `C[C@H]1[C@@H](c2ccc(F)c(F)c2OCCO)[C@H](C(=O)Nc2cnc3nnn(C)c3c2)O[C@@]1(C)C(F)(F)F` [Compound 565, (2R,3S,4S,5R)-3-(3,4-difluoro-2-(2-hydroxyethoxy)phenyl)-4,5-dimethyl-N-(1-methyl-1H-[1,2,3]triazolo[4,5-b]pyridin-6-yl)-5-(trifluoromethyl)tetrahydrofuran-2-carboxamide], the IC50 was in the range of 10 to 100 nM.

As to `COc1c([C@H]2[C@H](C(=O)NCC3(C)CCOCC3)O[C@@](C)(C(F)(F)F)[C@H]2C)ccc(F)c1F` [Compound 300, (2R,3S,4S,5R)-3-(3,4-difluoro-2-methoxyphenyl)-4,5-dimethyl-N-((4-methyltetrahydro-2H-pyran-4-yl)methyl)-5-(trifluoromethyl)tetrahydrofuran-2-carboxamide], the IC50 is at least 1000 nM.

On to `COc1c([C@H]2[C@H](C(=O)NC(C)c3ccc(C)c(F)c3)O[C@@](C)(C(F)(F)F)[C@H]2C)ccc(F)c1F` (stereo partly drawn) [Compound 308, (2R,3S,4S,5R)-3-(3,4-difluoro-2-methoxyphenyl)-N-(1-(3-fluoro-4-methylphenyl)ethyl)-4,5-dimethyl-5-(trifluoromethyl)tetrahydrofuran-2-carboxamide], for which the IC50 was at least 1000 nM.

For `COc1c([C@H]2[C@H](C(=O)Nc3ccnc(C4(N(C)C)COC4)c3)O[C@@](C)(C(F)(F)F)[C@H]2C)ccc(F)c1F` [Compound 362, (2R,3S,4S,5R)-3-(3,4-difluoro-2-methoxyphenyl)-N-(2-(3-(dimethylamino)oxetan-3-yl)pyridin-4-yl)-4,5-dimethyl-5-(trifluoromethyl)tetrahydrofuran-2-carboxamide], the IC50 was under 10 nM.

Consider `COc1c([C@H]2[C@H](C(=O)Nc3cnc4c(c3)CCC4O)O[C@@](C)(C(F)(F)F)[C@H]2C)ccc(F)c1F` (single isomer, unassigned) [Compound 433, rel-(2R*,3S*,4S*,5R*)-3-(3,4-difluoro-2-methoxyphenyl)-N-(7-hydroxy-6,7-dihydro-5H-cyclopenta[b]pyridin-3-yl)-4,5-dimethyl-5-(trifluoromethyl)tetrahydrofuran-2-carboxamide], for which the IC50 lay within 100 to 1000 nM.

Consider `COc1c(C2C(C(=O)Nc3ccc(C(N)=O)nc3)OC(C)(C(F)(F)F)C2C)ccc(C(F)F)c1F` (stereo not drawn) [Compound 158, 5-[[3-[4-(difluoromethyl)-3-fluoro-2-methoxy-phenyl]-4,5-dimethyl-5-(trifluoromethyl)tetrahydrofuran-2-carbonyl]amino]pyridine-2-carboxamide], for which the IC50 lay within 10 to 100 nM.

The record behind these values is US20240368135A1 (VERTEX PHARMACEUTICALS INCORPORATED, priority 2021, published 2024).
